# Results: US12648904B2, “Porous nanocomposite medical implant device” (Lynthera Corporation, priority 2020, dated 2026)
# Test: Fatty acid loading into contact lenses, by weighing the dry lens before and after soaking
# Type: physicochemical
# Conditions: for Fatty acid loading / Fatty acid by weight of the dried lens: ACUVUE TruEye lens; for Fatty acid loading: soaking concentration 20 mg/mL fatty acid in ethanol; for Fatty acid by weight of the dried lens: 7.5 mg/mL fatty acid in ethanol, 24 hours at 23° C.
# Procedure: Two commercial silicone hydrogel contact lenses were tested: ACUVUE TruEye® (46% Water+54% Narafilcon A) and ACUVUE Oasys® (38% Water+62% Senofilcon A). TruEye® is a daily disposable contact lens while Oasys® is an approved contact lens for extended wear. The lenses were rinsed with deionized water and then air-dried before being soaked in 4 mL of 19 mg/mL, 27 mg/mL or 40 mg/mL of oleic acid in ethanol. The soaking duration was 24 hours at room temperature. Following the loading step, the contact lenses were taken out and excess fatty acid-ethanol solution was blotted out from the lens surface. Lenses were washed in deionized water for 1 hour and subsequently air-dried overnight.
# The loading amount of OA was determined by weighing the dry lens before and after the fatty acid loading period as shown in FIG. 4. Oleic acid loading has a linear dependency on the concentration of the loading solutions. Furthermore, Oasys® has higher affinity for oleic acid than TruEye® at concentrations between […] and 27 mg/mL. For higher concentrations, the affinity for oleic acid is equivalent for both contact lenses. Therefore, the loading of Oleic acid into lens can be adjusted by this correlation.
# 1-day ACUVUE Moist® (58% Water+42% Etafi Icon A) are conventional hydrogel commercial lenses that are mostly composed of poly-2-hydroxyethyl methacrylate (pHEMA). Lenses were rinsed with PBS and then air-dried before use. Dry lenses were soaked in 4 mL of 100 mg/mL of oleic acid in a mixture of ethanol and deionized water (75/25 ethanol/water). […] Following the loading step, the contact lenses were taken out and excess fatty acid-ethanol solution was blotted out from the lens surface. Lenses were washed in PBS for 1 hour and then were air-dried overnight. The loading amount of OA was determined by weighing the dry lens before and after the fatty acid loading period.
# ACUVUE TruEye® (diopter −3.5) contact lenses were rinsed with deionized. water and then air-dried overnight before use. One batch of contact lenses were soaked in 4 mL of 7.5 mg,/mL of myristic acid in ethanol. Another batch of contact lens were soaked in 4 mL of 7.5 mg/mL of stearic acid in ethanol. A third batch of lenses was used as a control (no fatty acid loading). The soaking duration was 24 hours at 23° C. Following the loading step, the contact lenses were taken out and excess fatty acid-ethanol solution was blotted out from the lens surface. Lenses were washed in deionized water for 1 hour and subsequently air-dried overnight. All contact lenses were optically transparent in the hydrated state. The wt % of fatty add retain by the contact lens was determined by recording the increase in the weight of the dried lens after the soaking and drying procedure. For both stearic and myristic acid, approximately 1.5% ±0.5% by weight of the dried lens was composed of the fatty acid.
SMILES,Fatty acid loading,"Maximum oleic acid loading (1-day ACUVUE Moist lens, 100 to 500 mg/mL oleic acid in 75/25 ethanol/water)",Fatty acid by weight of the dried lens
CC/C=C\C/C=C\C/C=C\CCCCCCCC(=O)O [α-linolenic acid],6.0 wt %,–,–
CCCCC/C=C\C/C=C\CCCCCCCC(=O)O [linoleic acid],6.2 wt %,–,–
CCCCCCCC/C=C\CCCCCCCC(=O)O [oleic acid],6.1 wt %,2.9 wt. %,–

# Results, then the compound that gave them:
Fatty acid loading,"Maximum oleic acid loading (1-day ACUVUE Moist lens, 100 to 500 mg/mL oleic acid in 75/25 ethanol/water)",Fatty acid by weight of the dried lens,SMILES
–,–,approximately 1.5%,"CCCCCCCCCCCCCCCCCC(=O)O [stearic acid, Stearic Acid (Octadecanoic Acid)]"
–,–,approximately 1.5%,"CCCCCCCCCCCCCC(=O)O [myristic acid, Myristic Acid (Tetradecanoic Acid)]"
